Assay results as given in publication PMC12657586, “Therapeutic effect of an MRGPRX2/MRGPRB2 antagonist on LL-37-induced rosacea-like inflammation in mice” (Inflammation Research, 2025).

Target: T1, MRGPRX2 (Mas-related G protein-coupled receptor X2) (Homo sapiens, UniProt Q96LB1)
T1 sequence (Q96LB1 1-330): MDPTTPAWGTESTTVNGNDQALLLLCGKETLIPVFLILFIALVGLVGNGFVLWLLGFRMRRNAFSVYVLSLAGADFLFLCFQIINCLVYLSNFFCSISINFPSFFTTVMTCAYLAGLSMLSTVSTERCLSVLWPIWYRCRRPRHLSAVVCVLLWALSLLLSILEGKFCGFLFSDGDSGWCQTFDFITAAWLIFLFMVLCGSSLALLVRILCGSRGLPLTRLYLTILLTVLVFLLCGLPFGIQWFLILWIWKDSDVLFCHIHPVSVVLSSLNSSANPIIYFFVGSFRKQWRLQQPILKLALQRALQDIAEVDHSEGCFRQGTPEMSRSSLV
Test: Fluo-4 calcium flux assay in MRGPRX2-transfected HEK-293 cells, antagonism of LL-37
Type: cell-based

IC50: 12.3 µM
SMILES: COC(=O)c1cc2cc(NC(N)=O)ccc2cc1-c1cc2c3c(c(O)ccc3c1)C(C)C(C=O)=C2 (stereo not shown) [GE1111]
